System: nasT'FRET (DNA, G4) GGGAGCGGGACGGGGGCCGGG
Assay: FRET melting
Conditions: 100 mM Na+; 10 mM sodium cacodylate pH 7.4; 1 μM ligand (stated for ligand 1)

ΔTm: 30 °C
Compound: C[n+]1ccc(-c2c3nc(c(-c4cc[n+](C)cc4)c4ccc([nH]4)c(-c4cc[n+](C)cc4)c4nc(c(-c5cc[n+](C)cc5)c5ccc2[nH]5)C=C4)C=C3)cc1
